In patent US11344554B2, “Animal and human anti-malarial agents” (Celgene Corporation, priority 2016, dated 2022):

Test system: Plasmodium falciparum
Test: Plasmodium falciparum in vitro [3H]-hypoxanthine parasite growth inhibition assay
Format: cell-based
Conditions: Erythrocyte, P. falciparum asexual blood stage parasites in human erythrocytes, [3H]-hypoxanthine uptake, read-out: Act Class (IC50 activity level)

SMILES | IC50
CC(C)(C)Nc1ncc2nc(Nc3cc(Cl)cc(OC(F)(F)F)c3)n(C3CCNCC3)c2n1 [Cpd 48, N2-tert-butyl-N8-(3-chloro-5-(trifluoromethoxy)phenyl)-9-(piperidin-4-yl)-9H-purine-2,8-diamine] | < 100 nM
CC(C)(C)Nc1ncc2nc(Nc3cc(C(F)(F)F)cc(C(F)(F)F)c3)n(C3CCNCC3)c2n1 [Cpd 49, N8-(3,5-bis(trifluoromethyl)phenyl)-N2-tert-butyl-9-(piperidin-4-yl)-9H-purine-2,8-diamine] | < 100 nM
CC(C)(C)Nc1ncc2nc(Nc3cccc(C#N)c3)n(C3CCNCC3)c2n1 [Cpd 50, 3-(2-(tert-butylamino)-9-(piperidin-4-yl)-9H-purin-8-ylamino)benzonitrile] | 200 to 500 nM
FC(F)(F)c1cc(Cl)cc(Nc2nc3cnc(NC4CCOCC4)nc3n2C2CCNCC2)c1 [Cpd 51, N8-(3-chloro-5-(trifluoromethyl)phenyl)-9-(piperidin-4-yl)-N2-(tetrahydro-2H-pyran-4-yl)-9H-purine-2,8-diamine] | 100 to 200 nM
FC(F)(F)c1cc(Cl)cc(Nc2nc3cnc(NC4CCC4)nc3n2C2CCNCC2)c1 [Cpd 52, N8-(3-chloro-5-(trifluoromethyl)phenyl)-N2-cyclobutyl-9-(piperidin-4-yl)-9H-purine-2,8-diamine] | < 100 nM
FC(F)(F)c1cc(Cl)cc(Nc2nc3cnc(NC4CCCC4)nc3n2C2CCNCC2)c1 [Cpd 53, N8-(3-chloro-5-(trifluoromethyl)phenyl)-N2-cyclopentyl-9-(piperidin-4-yl)-9H-purine-2,8-diamine] | < 100 nM
CC1(Nc2ncc3nc(Nc4cc(Cl)cc(C(F)(F)F)c4)n(C4CCNCC4)c3n2)CCOCC1 [Cpd 54, N8-(3-chloro-5-(trifluoromethyl)phenyl)-N2-(4-methyltetrahydro-2H-pyran-4-yl)-9-(piperidin-4-yl)-9H-purine-2,8-diamine] | < 100 nM
CC1(Nc2ncc3nc(Nc4cccc(OC(F)(F)F)c4)n(C4CCNCC4)c3n2)CCOCC1 [Cpd 55, N2-(4-methyltetrahydro-2H-pyran-4-yl)-9-(piperidin-4-yl)-N8-(3-(trifluoromethoxy)phenyl)-9H-purine-2,8-diamine] | 100 to 200 nM
CC1(Nc2ncc3nc(Nc4cc(F)cc(Cl)c4)n(C4CCNCC4)c3n2)CCOCC1 [Cpd 56, N8-(3-chloro-5-fluorophenyl)-N2-(4-methyltetrahydro-2H-pyran-4-yl)-9-(piperidin-4-yl)-9H-purine-2,8-diamine] | < 100 nM
CC1(Nc2ncc3nc(Nc4cccc(C(F)F)c4)n(C4CCNCC4)c3n2)CCOCC1 [Cpd 57, N8-(3-(difluoromethyl)phenyl)-N2-(4-methyltetrahydro-2H-pyran-4-yl)-9-(piperidin-4-yl)-9H-purine-2,8-diamine] | 500 to 1200 nM
CC1(Nc2ncc3nc(Nc4cccc(C(F)(F)F)c4)n(CCC4CCNC4)c3n2)CCOCC1 (centres unmarked) [Cpd 58, N2-(4-methyltetrahydro-2H-pyran-4-yl)-9-(2-(pyrrolidin-3-yl)ethyl)-N8-(3-(trifluoromethyl)phenyl)-9H-purine-2,8-diamine] | 200 to 500 nM
CC1(Nc2ncc3nc(Nc4cccc(C(F)(F)F)c4)n(C4CCNCC4)c3n2)CCCC1 [Cpd 59, N2-(1-methylcyclopentyl)-9-(piperidin-4-yl)-N8-(3-(trifluoromethyl)phenyl)-9H-purine-2,8-diamine] | < 100 nM
CC(C)(C)Nc1ncc2nc(Nc3cc(Cl)cc(C(F)(F)F)c3)n(C3CCN(CCN)C3)c2n1 (centres unmarked) [Cpd 60, 9-(1-(2-aminoethyl)pyrrolidin-3-yl)-N2-tert-butyl-N8-(3-chloro-5-(trifluoromethyl)phenyl)-9H-purine-2,8-diamine] | 200 to 500 nM
CC1(Nc2ncc3nc(Nc4cc(Cl)cc(Cl)c4)n(C4CCNCC4)c3n2)CCOCC1 [Cpd 61, N8-(3,5-dichlorophenyl)-N2-(4-methyltetrahydro-2H-pyran-4-yl)-9-(piperidin-4-yl)-9H-purine-2,8-diamine] | < 100 nM
Fc1cc(Cl)cc(Nc2nc3cnc(NC4CC4)nc3n2C2CCNCC2)c1 [Cpd 62, N8-(3-chloro-5-fluorophenyl)-N2-cyclopropyl-9-(piperidin-4-yl)-9H-purine-2,8-diamine] | 100 to 200 nM
CC(C)Nc1ncc2nc(Nc3cc(F)cc(Cl)c3)n(C3CCNCC3)c2n1 [Cpd 63, N8-(3-chloro-5-fluorophenyl)-N2-isopropyl-9-(piperidin-4-yl)-9H-purine-2,8-diamine] | < 100 nM
CC1(Nc2ncc3nc(Nc4cc(F)cc(Cl)c4)n(C4CCNCC4)c3n2)CC1 [Cpd 64, N8-(3-chloro-5-fluorophenyl)-N2-(1-methylcyclopropyl)-9-(piperidin-4-yl)-9H-purine-2,8-diamine] | < 100 nM
CC(C)Nc1ncc2nc(Nc3ccc(Cl)c(Cl)c3)n(C3CCNCC3)c2n1 [Cpd 65, N8-(3,4-dichlorophenyl)-N2-isopropyl-9-(piperidin-4-yl)-9H-purine-2,8-diamine] | < 100 nM
CC(C)Nc1ncc2nc(Nc3cccc(C(F)(F)F)c3)n(C3CCNCC3)c2n1 [Cpd 66, N2-isopropyl-9-(piperidin-4-yl)-N8-(3-(trifluoromethyl)phenyl)-9H-purine-2,8-diamine] | 100 to 200 nM

SMILES | IC50
CC1(Nc2ncc3nc(Nc4cc(Cl)cc(C(F)(F)F)c4)n(C4CCNCC4)c3n2)CCCC1 [Cpd 68, N8-(3-chloro-5-(trifluoromethyl)phenyl)-N2-(1-methylcyclopentyl)-9-(piperidin-4-yl)-9H-purine-2,8-diamine] | < 100 nM
CC1(Nc2ncc3nc(Nc4cc(Cl)cc(C(F)(F)F)c4)n(C4CCNCC4)c3n2)CCC1 [Cpd 69, N8-(3-chloro-5-(trifluoromethyl)phenyl)-N2-(1-methylcyclobutyl)-9-(piperidin-4-yl)-9H-purine-2,8-diamine] | < 100 nM
CC(C)(C)Nc1ncc2nc(Nc3cccc(C(F)(F)F)c3)n(C3CCC4CNCC4C3)c2n1 (centres unmarked) [Cpd 78, N2-tert-butyl-9-(octahydro-1H-isoindol-5-yl)-N8-(3-(trifluoromethyl)phenyl)-9H-purine-2,8-diamine] | 500 to 1200 nM
CC(C)Nc1ncc2nc(Nc3ccc(Cl)c(C(F)(F)F)c3)n(C3CCNCC3)c2n1 [Cpd 79, N8-(4-chloro-3-(trifluoromethyl)phenyl)-N2-isopropyl-9-(piperidin-4-yl)-9H-purine-2,8-diamine] | 100 to 200 nM
FC(F)(F)c1cc(Nc2nc3cnc(NC4CC4)nc3n2C2CCNCC2)ccc1Cl [Cpd 80, N8-(4-chloro-3-(trifluoromethyl)phenyl)-N2-cyclopropyl-9-(piperidin-4-yl)-9H-purine-2,8-diamine] | 200 to 500 nM
FC(F)(F)c1ccc(Nc2nc3cnc(NC4CC4)nc3n2C2CCNCC2)cc1Cl [Cpd 81, N8-(3-chloro-4-(trifluoromethyl)phenyl)-N2-cyclopropyl-9-(piperidin-4-yl)-9H-purine-2,8-diamine] | 200 to 500 nM
CC(C)(C)Nc1ncc2nc(Nc3ccc(C(F)(F)F)c(Cl)c3)n(C3CCNCC3)c2n1 [Cpd 82, N2-tert-butyl-N8-(3-chloro-4-(trifluoromethyl)phenyl)-9-(piperidin-4-yl)-9H-purine-2,8-diamine] | 200 to 500 nM
FC(F)(F)c1ccc(Nc2nc3cnc(NC4CCC4)nc3n2C2CCNCC2)cc1Cl [Cpd 83, N8-(3-chloro-4-(trifluoromethyl)phenyl)-N2-cyclobutyl-9-(piperidin-4-yl)-9H-purine-2,8-diamine] | 100 to 200 nM
CC(C)Nc1ncc2nc(Nc3cc(C(F)(F)F)cc(C(F)(F)F)c3)n(C3CCNCC3)c2n1 [Cpd 84, N8-(3,5-bis(trifluoromethyl)phenyl)-N2-isopropyl-9-(piperidin-4-yl)-9H-purine-2,8-diamine] | < 100 nM
FC(F)(F)c1cc(Nc2nc3cnc(NC4CCCC4)nc3n2C2CCNCC2)cc(C(F)(F)F)c1 [Cpd 85, N8-(3,5-bis(trifluoromethyl)phenyl)-N2-cyclopentyl-9-(piperidin-4-yl)-9H-purine-2,8-diamine] | < 100 nM
FC(F)(F)c1cc(Nc2nc3cnc(NC4CCC4)nc3n2C2CCNCC2)cc(C(F)(F)F)c1 [Cpd 86, N8-(3,5-bis(trifluoromethyl)phenyl)-N2-cyclobutyl-9-(piperidin-4-yl)-9H-purine-2,8-diamine] | 100 to 200 nM
FC(F)(F)c1cc(Nc2nc3cnc(NC4CCCC4)nc3n2C2CCNCC2)ccc1Cl [Cpd 87, N8-(4-chloro-3-(trifluoromethyl)phenyl)-N2-cyclopentyl-9-(piperidin-4-yl)-9H-purine-2,8-diamine] | 100 to 200 nM
CC(C)(C)Nc1ncc2nc(Nc3ccc(Cl)c(C(F)(F)F)c3)n(C3CCNCC3)c2n1 [Cpd 88, N2-tert-butyl-N8-(4-chloro-3-(trifluoromethyl)phenyl)-9-(piperidin-4-yl)-9H-purine-2,8-diamine] | 100 to 200 nM
CC1(Nc2ncc3nc(Nc4ccc(Cl)c(C(F)(F)F)c4)n(C4CCNCC4)c3n2)CC1 [Cpd 89, N8-(4-chloro-3-(trifluoromethyl)phenyl)-N2-(1-methylcyclopropyl)-9-(piperidin-4-yl)-9H-purine-2,8-diamine] | 200 to 500 nM
CC1(Nc2ncc3nc(Nc4ccc(Cl)c(C(F)(F)F)c4)n(C4CCNCC4)c3n2)CCCC1 [Cpd 90, N8-(4-chloro-3-(trifluoromethyl)phenyl)-N2-(1-methylcyclopentyl)-9-(piperidin-4-yl)-9H-purine-2,8-diamine] | 100 to 200 nM
CC(C)Nc1ncc2nc(Nc3ccc(C(F)(F)F)c(Cl)c3)n(C3CCNCC3)c2n1 [Cpd 91, N8-(3-chloro-4-(trifluoromethyl)phenyl)-N2-isopropyl-9-(piperidin-4-yl)-9H-purine-2,8-diamine] | 200 to 500 nM
FC(F)(F)c1ccc(Nc2nc3cnc(NC4CCCC4)nc3n2C2CCNCC2)cc1Cl [Cpd 92, N8-(3-chloro-4-(trifluoromethyl)phenyl)-N2-cyclopentyl-9-(piperidin-4-yl)-9H-purine-2,8-diamine] | 200 to 500 nM
CC1(Nc2ncc3nc(Nc4ccc(C(F)(F)F)c(Cl)c4)n(C4CCNCC4)c3n2)CC1 [Cpd 93, N8-(3-chloro-4-(trifluoromethyl)phenyl)-N2-(1-methylcyclopropyl)-9-(piperidin-4-yl)-9H-purine-2,8-diamine] | 200 to 500 nM
CC1(Nc2ncc3nc(Nc4ccc(C(F)(F)F)c(Cl)c4)n(C4CCNCC4)c3n2)CCCC1 [Cpd 94, N8-(3-chloro-4-(trifluoromethyl)phenyl)-N2-(1-methylcyclopentyl)-9-(piperidin-4-yl)-9H-purine-2,8-diamine] | 100 to 200 nM
